Measured values reported in patent US7414061B2, “Aryl-isoxazol-4-yl-imidazole derivatives” (Hoffmann-La Roche Inc., priority 2005, dated 2008).
Like-named read-outs stand apart in the source and are kept apart here.

Molecular target: T1, GABA A receptor α5β3γ2 (hα5) (Homo sapiens, UniProt P18507+P31644)
T1 construct: expressed in transfected cells; host or cells: HEK293 (transiently transfected), membrane preparation
Assay: [3H]flumazenil competition binding assay, human GABA A α5β3γ2
Protocol: The affinity of compounds at GABA A receptor subtypes was measured by competition for [3H]flumazenil (85 Ci/mmol; Roche) binding to HEK293 cells expressing rat (stably transfected) or human (transiently transfected) receptors of composition α1β3γ2, α2β3γ2, α3β3γ2 and α5β3γ2.
Cell pellets were suspended in Krebs-tris buffer (4.8 mM KCl, 1.2 mM CaCl2, 1.2 mM MgCl2, 120 mM NaCl, 15 mM Tris; pH 7.5; binding assay buffer), homogenized by polytron for ca. 20 sec on ice and centrifuged for 60 min at 4° C. (50000 g; Sorvall, rotor: SM24=20000 rpm). The cell pellets were resuspended in Krebs-tris buffer and homogenized by polytron for ca. 15 sec on ice. Protein was measured (Bradford method, Bio-Rad) and aliquots of 1 mL were prepared and stored at −80° C.
Radioligand binding assays were carried out in a volume of […] (96-well plates) which contained […] of cell membranes, [3H]flumazenil at a concentration of 1 nM for α1, α2, α3 subunits and 0.5 nM for α5 subunits and the test compound in the range of […]. Nonspecific binding was defined by 10^−5 M diazepam and typically represented less than 5% of the total binding. Assays were incubated to equilibrium for 1 hour at 4° C. and harvested onto GF/C uni-filters (Packard) by filtration using a Packard harvester and washing with ice-cold wash buffer (50 mM Tris; pH 7.5). After drying, filter-retained radioactivity was detected by liquid scintillation counting. Ki values were calculated using Excel-Fit (Microsoft) and are the means of two determinations.

[1] = displacement of [3H]flumazenil (0.5 nM) from HEK293 cell membranes expressing α5β3γ2, means of two determinations, read-out: Ki[nM] hα5

Row | Compound | Ki [nM] | Ki [1] [nM]
1 | C#CCNC(=O)c1ccc(-n2cnc(-c3c(-c4ccccc4)noc3C)c2)cc1 [Example 72, 4-[4-(5-Methyl-3-phenyl-isoxazol-4-yl)-imidazol-1-yl]-N-prop-2-ynyl-benzamide] | 13.2 | –
2 | Cc1onc(-c2ccc(F)cc2)c1-c1cn(-c2ccc(F)cc2)cn1 [Example 114, 3-(4-Fluoro-phenyl)-4-[1-(4-fluoro-phenyl)-1H-imidazol-4-yl]-5-methyl-isoxazole] | – | 31
3 | 1-{4-(4-[5-Ethyl-3-(4-fluoro-phenyl)-isoxazol-4-yl]-imidazol-1-yl}-phenyl)-ethanone [Example 132] | – | 4.7
4 | CC(=O)c1ccc(-n2cnc(-c3c(-c4ccc(F)cc4)noc3C)c2)cc1 [Example 46, 1-(4-{4-[3-(4-Fluoro-phenyl)-5-methyl-isoxazol-4-yl]-imidazol-1-yl}-phenyl)-ethanone] | – | 4.7
5 | Cc1onc(-c2ccccc2)c1-c1cn(-c2ccc(C(=O)NCc3ccncc3)cc2)cn1 [Example 79, 4-[4-(5-Methyl-3-phenyl-isoxazol-4-yl)-imidazol-1-yl]-N-pyridin-4-ylmethyl-benzamide] | – | 14
6 | Cc1onc(-c2ccccc2)c1-c1cn(-c2ccccc2)cn1 [Example 2, 5-Methyl-3-phenyl-4-(1-phenyl-1H-imidazol-4-yl)-isoxazole] | – | 21.7
7 | 4-{4-[3-(3-Fluoro-phenyl)-5-methyl-isoxazol-4-yl]-imidazol-1-yl}-N-[2-(1H-imidazol-4-yl)-ethyl]-benzamide [Example 104] | – | 31.5
8 | Cc1onc(-c2ccccc2)c1-c1cn(-c2ccc(C(F)(F)F)cc2)cn1 [Example 14, 5-Methyl-3-phenyl-4-[1-(4-trifluoromethyl-phenyl)-1H-imidazol-4-yl]-isoxazole] | – | 30.7
9 | Cc1onc(-c2ccccc2)c1-c1cn(-c2ccc([N+](=O)[O-])cc2)c(COCc2ccccc2F)n1 [Example 160, 4-[2-(2-Fluoro-benzyloxymethyl)-1-(4-nitro-phenyl)-1H-imidazol-4-yl]-5-methyl-3-phenyl-isoxazole] | – | 12.7
10 | Cc1onc(-c2ccccc2)c1-c1cn(-c2cc(F)cc(F)c2)cn1 [Example 24, 4-[1-(3,5-Difluoro-phenyl)-1H-imidazol-4-yl]-5-methyl-3-phenyl-isoxazole] | – | 29
11 | 5-Ethyl-4-[1-(4-nitro-phenyl)-1H-imidazol-4-yl]-3-phenyl-isoxazole [Example 31] | – | 5

More lines, now with the values ahead:

Row | Ki [nM] | Ki [1] [nM] | Compound
12 | – | 16.3 | Cc1onc(-c2ccccc2)c1-c1cn(-c2ccc([N+](=O)[O-])cc2)c(COCc2ccccn2)n1 [Example 161, 2-[4-(5-Methyl-3-phenyl-isoxazol-4-yl)-1-(4-nitro-phenyl)-1H-imidazol-2-ylmethoxymethyl]-pyridine]
13 | – | 12.8 | Cc1onc(-c2ccccc2)c1-c1cn(-c2ccc(C(=O)NCc3cccnc3)cc2)cn1 [Example 78, 4-[4-(5-Methyl-3-phenyl-isoxazol-4-yl)-imidazol-1-yl]-N-pyridin-3-ylmethyl-benzamide]
14 | – | 29 | Cc1cccc(-n2cnc(-c3c(-c4ccc(F)cc4)noc3C)c2)c1 [Example 118, 3-(4-Fluoro-phenyl)-5-methyl-4-(1-m-tolyl-1H-imidazol-4-yl)-isoxazole]
15 | – | 28.7 | CCOc1ccc(-n2cnc(-c3c(-c4ccccc4)noc3C)c2)cc1 [Example 19, 4-[1-(4-Ethoxy-phenyl)-1H-imidazol-4-yl]-5-methyl-3-phenyl-isoxazole]
16 | – | 32.4 | CCOc1ccccc1-n1cnc(-c2c(-c3ccccc3)noc2C)c1 [Example 20, 4-[1-(2-Ethoxy-phenyl)-1H-imidazol-4-yl]-5-methyl-3-phenyl-isoxazole]
17 | – | 32.1 | Cc1onc(-c2cccc(F)c2)c1-c1cn(-c2ccc(C(=O)NCc3ccccn3)cc2)cn1 [Example 106, 4-{4-[3-(3-Fluoro-phenyl)-5-methyl-isoxazol-4-yl]-imidazol-1-yl}-N-pyridin-2-ylmethyl-benzamide]
18 | – | 33.1 | Cc1onc(-c2ccccc2)c1-c1cn(-c2cccc(F)c2)cn1 [Example 4, 4-[1-(3-Fluoro-phenyl)-1H-imidazol-4-yl]-5-methyl-3-phenyl-isoxazole]
